Like-named read-outs stand apart in the source and are kept apart here. No end group written: not given here.
What was measured:
POL/UL8 interaction [1] = molecular target: T1, POL/UL8 interaction (Human herpesvirus 1, UniProt P04293); experiment: biochemical; assay type: binding, HSV-1; settings: for Inhibition of the POL/UL8 interaction (in words): FIG. 6
T1 construct: made in house; host or cells: Spodoptera frugiperda (Sf) cells infected with recombinant baculoviruses AcUL30 and AcUL8
From the text: POL/UL8 interaction assays. ELISA assays, similar to that described for POL/UL42 (Marsden et al., 1994) were established with purified POL and UL8 proteins. POL was extracted from Sf cells infected with recombinant baculovirus AcUL30 and purified as described by Gottlieb et al. (1990) with minor modifications (Marsden et al., 1994). UL8 protein was extracted from Sf cells infected with recombinant baculovirus AcUL8 and purified as described by Parry et al., (1993) but substituting phenyl-Sepharose by hydroxylapatite chromatography (Dodson and Lehman, 1991). Both proteins were diluted in PBS to the required concentrations. For the first assay, microtiter wells were coated overnight with 0.02 μg of purified POL and blocked with 100 μl of 2% BSA in PBS for 1 h at 37° C. After blocking, the plates were washed extensively with PBS containing 0.3% Tween 20 and blotted dry. Then 50 μl of purified UL8, at the concentrations indicated in the text, were added to each well and incubated for 1 h at 37° C. […] The wells were again extensively washed and bound MAb was detected with 50 μl/well of HRP-conjugated goat anti-mouse IgG (Sigma) diluted 1:500 in PBS containing 2% FCS and chromogenic substrate ABTS. For the second assay, POL and UL8 proteins were added in the reverse order. Microtitre wells were coated overnight with 0.02 to 0.04 μg of purified UL8 protein and bound POL was detected with a POL-specific MAB 13185 (Marsden et al., 1996) diluted 1:100. Other aspects of the two assays were identical. MAbs, diluted in PBS plus 2% fetal calf serum, and peptides, diluted in 100 mM Tris-HCl (pH 8.0) plus 0.1% Tween 20, were added to the interaction assay as described in the text.
Inhibition of the POL/UL8 interaction by UL8 peptides. […] Peptides were dissolved in 100 mM Tris-HCl (pH 8.0) plus 0.1% Tween 20 at different concentrations and incubated with POL for 15 min to allow the peptides to bind to POL. The mixtures were then added to microtiter wells coated with UL8 and the amount of POL bound was determined after 1 h. […] The concentration of each peptide required to reduce POL binding by 50% (the IC50 value) was determined in at least 3, and on average 5, independent experiments.
The jumbled peptide, 7J, was made by linking residues from alternately the N- and C-termini of peptide 7. Thus, if the order of the 20 residues in peptide 7 is represented as 1, 2, 3, . . . 18, 19, 20, that in 7J was 1, 20, 2, 19, . . . […].
We next investigated whether the preincubation step was necessary.

UL54/UL102 interaction = molecular target: T2, UL54/UL102 interaction (Human cytomegalovirus, UniProt P08546); experiment: UL54/UL102 interaction ELISA, inhibition by UL102 peptides; assay type: binding, HCMV
T2 construct: made in house; host or cells: Spodoptera frugiperda (Sf) cells infected with recombinant baculoviruses AcUL54 and AcUL102
T2 sequence (P08546 whole entry): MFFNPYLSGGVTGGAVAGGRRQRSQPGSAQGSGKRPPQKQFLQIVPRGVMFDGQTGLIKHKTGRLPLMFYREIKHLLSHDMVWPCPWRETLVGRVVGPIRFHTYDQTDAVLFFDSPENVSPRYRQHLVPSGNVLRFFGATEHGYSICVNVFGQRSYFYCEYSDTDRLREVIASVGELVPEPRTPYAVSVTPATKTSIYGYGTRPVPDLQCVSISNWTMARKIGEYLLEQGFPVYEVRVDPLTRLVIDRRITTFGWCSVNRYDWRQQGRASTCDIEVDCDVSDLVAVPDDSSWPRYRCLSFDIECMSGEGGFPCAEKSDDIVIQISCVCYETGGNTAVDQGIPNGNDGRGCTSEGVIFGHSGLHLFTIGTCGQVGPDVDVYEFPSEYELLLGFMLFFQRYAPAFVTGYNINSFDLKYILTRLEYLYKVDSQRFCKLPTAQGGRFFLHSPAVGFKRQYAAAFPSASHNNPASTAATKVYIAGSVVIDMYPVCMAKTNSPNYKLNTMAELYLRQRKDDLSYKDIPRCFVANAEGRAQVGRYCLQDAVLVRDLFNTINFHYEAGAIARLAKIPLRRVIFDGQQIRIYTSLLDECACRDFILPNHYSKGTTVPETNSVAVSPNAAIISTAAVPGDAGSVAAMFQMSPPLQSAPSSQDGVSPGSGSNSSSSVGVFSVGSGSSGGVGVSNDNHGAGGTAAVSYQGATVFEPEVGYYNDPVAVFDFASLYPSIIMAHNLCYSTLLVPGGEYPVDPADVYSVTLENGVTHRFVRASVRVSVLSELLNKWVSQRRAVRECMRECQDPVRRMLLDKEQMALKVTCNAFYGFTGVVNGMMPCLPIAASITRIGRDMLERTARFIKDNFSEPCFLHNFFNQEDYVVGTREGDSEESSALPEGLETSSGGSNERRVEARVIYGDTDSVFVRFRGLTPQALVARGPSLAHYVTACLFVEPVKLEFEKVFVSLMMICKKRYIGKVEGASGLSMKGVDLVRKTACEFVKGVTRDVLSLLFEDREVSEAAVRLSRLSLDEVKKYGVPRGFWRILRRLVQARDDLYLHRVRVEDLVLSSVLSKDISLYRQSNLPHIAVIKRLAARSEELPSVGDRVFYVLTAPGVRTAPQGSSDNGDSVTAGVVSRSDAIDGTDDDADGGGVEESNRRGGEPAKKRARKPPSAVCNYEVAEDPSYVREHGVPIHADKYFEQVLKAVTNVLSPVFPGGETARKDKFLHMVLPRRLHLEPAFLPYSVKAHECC
Procedure: UL54/UL102 interaction assays. ELISA assays, similar to those described for HSV-1 POL/UL8 (see Example 1 above) were established with purified HCMV UL54 and UL102 proteins. […] The wells were again extensively washed and bound antibody was detected with 50 μl/well of HRP-conjugated protein A (Sigma) diluted 1:500 in PBS containing 2% FCS. After further washes, chromogenic substrate ABTS was added.
Inhibition of the UL54/UL102 interaction by UL102 peptides. […] To do this, the peptides listed in Table 4 were tested for their ability to block the interaction of HCMV UL102 with HCMV UL54. […] The amount of UL54 bound was determined after 1 h by measuring the absorbance at 405 nm as described. The absorbance in the absence of any peptide, 1.061±0.033, was determined from six wells. The background absorbance in the absence of any UL54, 0.240±0.025, was also determined from six wells and was subtracted from all values. […] The concentration of each peptide required to reduce UL54-binding by 50% (the IC50 value) was determined and is listed in Table 4.

[2] = Solubility of peptides in assay buffer; assay type: physicochemical; settings: 100 mM Tris-HCl (pH 8.0) plus 0.1% Tween 20
POL/UL8 interaction [3] = molecular target: T1, POL/UL8 interaction; experiment: biochemical; assay type: binding, HSV-1; settings: IC50 value for inhibition of the POL/UL8 interaction, FIG. 8; no pre-incubation, peptide added a few seconds after POL
[4] = IC50 value for inhibition of the POL/UL8 interaction, experiment shown in FIG. 7, 15 min pre-incubation with POL

T1 sequence (P04293 whole entry): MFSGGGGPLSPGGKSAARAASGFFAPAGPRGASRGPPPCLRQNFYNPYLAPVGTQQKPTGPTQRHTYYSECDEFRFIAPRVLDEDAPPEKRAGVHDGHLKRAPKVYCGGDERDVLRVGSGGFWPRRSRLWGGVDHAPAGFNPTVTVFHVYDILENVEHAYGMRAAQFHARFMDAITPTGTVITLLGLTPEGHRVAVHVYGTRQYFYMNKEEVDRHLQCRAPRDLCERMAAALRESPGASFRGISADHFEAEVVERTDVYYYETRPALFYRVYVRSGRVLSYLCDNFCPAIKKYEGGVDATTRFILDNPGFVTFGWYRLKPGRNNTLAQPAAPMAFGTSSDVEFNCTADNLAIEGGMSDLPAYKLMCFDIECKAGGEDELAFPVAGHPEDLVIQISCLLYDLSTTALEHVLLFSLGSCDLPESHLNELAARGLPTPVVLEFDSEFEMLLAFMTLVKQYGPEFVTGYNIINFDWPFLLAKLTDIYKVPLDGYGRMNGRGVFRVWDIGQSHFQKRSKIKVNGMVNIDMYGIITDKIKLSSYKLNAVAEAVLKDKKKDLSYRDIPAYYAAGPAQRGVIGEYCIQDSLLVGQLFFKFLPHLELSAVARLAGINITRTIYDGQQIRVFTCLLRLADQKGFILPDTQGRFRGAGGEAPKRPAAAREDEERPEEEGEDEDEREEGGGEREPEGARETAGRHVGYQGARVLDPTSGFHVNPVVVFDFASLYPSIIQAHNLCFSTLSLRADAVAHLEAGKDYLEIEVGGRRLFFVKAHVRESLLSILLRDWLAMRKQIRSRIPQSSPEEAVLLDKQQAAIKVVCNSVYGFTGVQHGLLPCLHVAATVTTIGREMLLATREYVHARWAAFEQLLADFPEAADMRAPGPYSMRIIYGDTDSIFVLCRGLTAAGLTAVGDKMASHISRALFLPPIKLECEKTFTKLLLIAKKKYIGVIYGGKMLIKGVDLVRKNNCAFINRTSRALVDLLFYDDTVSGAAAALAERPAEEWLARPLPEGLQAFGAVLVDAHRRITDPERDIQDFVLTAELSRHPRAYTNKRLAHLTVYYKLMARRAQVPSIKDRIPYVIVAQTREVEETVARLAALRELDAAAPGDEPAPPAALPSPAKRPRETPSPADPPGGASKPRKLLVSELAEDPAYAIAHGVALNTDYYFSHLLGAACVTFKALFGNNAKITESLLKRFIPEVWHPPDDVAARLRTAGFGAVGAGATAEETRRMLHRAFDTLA

Compound: CC[C@H](C)[C@H](NC(=O)[C@@H]1CCCN1C(=O)[C@H](CCC(=O)O)NC(=O)[C@H](CCCCN)NC(=O)[C@H](CCC(=O)O)NC(=O)[C@H](CC(C)C)NC(=O)[C@H](CCC(N)=O)NC(=O)[C@H](Cc1ccc(O)cc1)NC(=O)[C@H](Cc1c[nH]c2ccccc12)NC(=O)[C@H](CC(C)C)NC(=O)[C@H](CCCCN)NC(=O)[C@@H](N)C(C)C)C(=O)N[C@H](C(=O)NCC(=O)N[C@@H](C)C(=O)O)C(C)C [Peptide RT85, reference compound]
- IC50 (POL/UL8 interaction [1]): > 250 µM
- IC50 (UL54/UL102 interaction): > 200 µM

Compound: VFTGVLAGVWGEGGKFVYPFDDKMSFLFA [Peptide 5]
- IC50 (POL/UL8 interaction [1]): 66 ± 22 µM
- Inhibition of the POL/UL8 interaction (in words) (POL/UL8 interaction [1]): markedly inhibitory
- Solubility (in words) [2]: limited solubility

Compound: IVEFLKVGFGTEGGVWLVAG [Peptide 7J, reference compound]
- IC50 (POL/UL8 interaction [1]): > 20 µM
- IC50 (POL/UL8 interaction [1]; [4]): > 20 µM

Compound: EILREIELVFTGVLA [Peptide 8]
- IC50 (POL/UL8 interaction [1]): > 250 µM

Compound: IELVFTGVLAGVWGEGGKFV [Peptide 7]
- IC50 (POL/UL8 interaction [1]): 2.3 ± 2.2 µM
- Inhibition of the POL/UL8 interaction (in words) (POL/UL8 interaction [1]): markedly inhibitory
- IC50 (POL/UL8 interaction [1]; IC50 value for inhibition of the POL/UL8 interaction, FIG. 8, peptide pre-incubated with POL for 15 min): ~1 µM
- IC50 (POL/UL8 interaction [1]; [4]): ~1 µM
- Solubility (in words) [2]: limited solubility
- IC50 (POL/UL8 interaction [3]): ~1 µM

Compound: TGVLAGVWGEGGKFVYPFDDKMSFLFA [Peptide 4]
- IC50 (POL/UL8 interaction [1]): > 250 µM

Compound: VLAGVWGEGGKFVYPFDDKMSFLFA [Peptide 3]
- IC50 (POL/UL8 interaction [1]): > 250 µM

Compound: TGVLAGVWGEGGKFV [Peptide 6]
- IC50 (POL/UL8 interaction [1]): > 250 µM
